This note sets out measurements from patent US20250051321A1, “TRICYCLIC DERIVATIVE AND PREPARATION METHOD THEREFOR AND APPLICATION THEREOF” (SHANGHAI JEMINCARE PHARMACEUTICAL CO., LTD., priority 2021, published 2025).

This experiment relates to plasma LPA 18:1 and LPA 18:2. In words: Human plasma ex vivo assay (LPA 18:1 / 18:2 by LC-MS/MS). Format: biochemical. The conditions noted are these: 37° C., 2 hours. The protocol: The collected plasma was centrifuged at 4000 rpm for 15 minutes at 4° C. The supernatant was aliquoted into a 96-well plate (25 μL per well), sealed, and frozen at −80° C. for further use.
LPA 17:0 powder was dissolved in a mixed solution of water: isopropanol: formic acid (1:1:1) to a final concentration of […]. The mixture was aliquoted and frozen at −20° C.
1 volume of formic acid was added to 1000× methanol, mixed well, and stored at 4° C. a) The 96-well plate containing frozen plasma was removed from the −80° C. freezer and thawed on ice at room temperature. b) 6 μL of 50× LPA 17:0 (internal standard) and 264 μL of 0.1% FA were added to a clean well of the 96-well plate; the final concentration of LPA 17:0 (internal standard) was 50 nM. c) 6× compound was 1:3 serially diluted to a total of 8 concentrations, and 5 μL of the compound per well was added to the 96-well plate containing plasma. The maximum final concentration of the compound was 10 μM, and the final concentration of DMSO was 0.1%. The plate was centrifuged at 300 rpm for 30 seconds. The DMSO control sample reacted for 0 hours was used as the minimum value (Min), and the DMSO control sample reacted for 2 hours was used as the maximum value (Max). […]
d) The DMSO sample reacted for 0 hours was rapidly transferred to 0.1% FA solution containing the internal standard in step b) to terminate the reaction and precipitate plasma proteins. e) The 96-well plate containing plasma and compounds was rapidly incubated in a 37° C. incubator for 2 hours. After the incubation, 6 μL of 10× LPA 17:0 and 264 μL of 0.1% FA were added to each well to terminate the reaction and precipitate plasma proteins. […]
f) All the samples were mixed well with a pipette, and centrifuged at 4000 rpm for 10 minutes at 4° C. 150 μL of the supernatant was added to a 96-well U-bottom plate (Thermo 267245), sealed with silica gel, and then loaded. The contents of LPA 18:1 and LPA 18:2 in the samples were detected by LC-MS/MS system.
LPA 18:1(or 18:2) relative content=LPA 18:1(or 18:2) peak area/LPA 17:0 peak area Percentage reduction (%) in plasma LPA18:1(or 18:2)=(Max−X)/(Max−Min)*100 Max: LPA 18:1 (or 18:2) relative content of the DMSO sample reacted for 2 hours Min: LPA 18:1 (or 18:2) relative content of the DMSO sample reacted for 0 hours X: LPA 18:1 (or 18:2) relative content of the sample after compound treatment for 2 hours The IC50 of the compounds was calculated by fitting a nonlinear regression through percentage reduction in plasma LPA 18:1 (or 18:2) and log value of compound concentration using the software GraphPad Prism 8.
Y=Bottom+(Top−Bottom)/(1+10^((Log IC50−X)*Hill Slope))

Where [1] appears, read: LPA 18:1, read-out: Human plasma ex vivo assay IC50 (18:1 LPA).
The mark [2] stands for this setting: LPA 18:2, read-out: Human plasma ex vivo assay IC50 (18:2 LPA).

Read-outs that look alike come from different tables or passages of the source.

Consider `Cc1cc(N2CC3(CN(C(=O)C(C)(C)O)C3)C2)nc2c(N(C)c3nc(-c4ccc(F)cc4)c(C#N)s3)c3c(nc12)[C@](C)(O)CC3` (single isomer, unassigned) [Example E25-a], for which the IC50 (usually the concentration that inhibits the measured activity by half) by setting is: under setting [1], 0.372 µM; under setting [2], 0.366 µM.
`Cc1cc(N2CC3(CN(C(=O)C(C)(C)O)C3)C2)nc2c(N(C)c3nc(-c4ccc(F)cc4)c(C#N)s3)c3c(nc12)[C@@H](O)CC3` (single isomer, unassigned) [Example E32-a]: the IC50 was found to be 0.323 µM under setting [1] and 0.331 µM under setting [2].
Regarding `Cc1cc(N2CC3(CN(C(=O)C(C)(C)O)C3)C2)nc2c(N(C)c3nc(-c4ccc(F)cc4)c(C#N)s3)c3c(nc12)[C@H](O)CC3` (single isomer, unassigned) [Example E32-b], the IC50 is 0.373 µM under setting [1] and 0.489 µM under setting [2].
For the molecule `CN(c1nc(-c2ccc(F)cc2)c(C#N)s1)c1c2c(nc3c(F)cc(N4CC5(CN(C(=O)C(C)(C)O)C5)C4)cc13)[C@@](C)(O)CC2` (single isomer, unassigned) [Example E35-a], the concentration for half-maximal inhibition (IC50) turned out to be 0.388 µM under setting [1] and 0.284 µM under setting [2].
Turning to `CN(c1nc(-c2ccc(F)cc2)c(C#N)s1)c1c2c(nc3c(F)cc(N4CC5(CN(C(=O)[C@@H]6CCCO6)C5)C4)cc13)[C@@H](O)CC2` (single isomer, unassigned) [Example E54-a], the half-inhibitory concentration (IC50) is, setting by setting: under setting [1], 0.725 µM; under setting [2], 0.483 µM.
On to `CN(c1nc(-c2ccc(F)cc2)c(C#N)s1)c1c2c(nc3ccc(N4CCN(CC(=O)N5CC(O)C5)CC4)nc13)COC2` [Example A13], for which the IC50 was found to be 0.194 µM under setting [1] and 0.206 µM under setting [2].
Take `CN(c1nc(-c2ccc(F)cc2)c(C#N)s1)c1c2c(nc3ccc(N4CC5(CN(C(=O)C(C)(C)O)C5)C4)nc13)CC2` [Example C24]: the IC50 is, setting by setting: under setting [1], 0.232 µM; under setting [2], 0.221 µM.
Regarding `CN(c1nc(-c2ccc(F)cc2)c(C#N)s1)c1c2c(nc3c(F)cc(N4CC5(CN(C(=O)CN6CC[C@@H](O)C6)C5)C4)cc13)C(O)CC2` (stereo partly shown) [Example E27], the IC50 is, setting by setting: under setting [1], 0.287 µM; under setting [2], 0.314 µM.
For `CN(c1nc(-c2ccc(F)cc2)c(C#N)s1)c1c2c(nc3c(F)cc(N4CC5(CN(C(=O)CN6CC[C@H](O)C6)C5)C4)cc13)C(O)CC2` (stereo partly shown) [Example E28], in that order: 0.298 µM and 0.271 µM.
In the case of `CN(c1nc(-c2ccc(F)cc2)c(C#N)s1)c1c2c(nc3c(F)cc(N4CC5(CN(C(=O)C(C)(C)N)C5)C4)cc13)C(O)CC2` (stereo not shown) [Example E29], the half-maximal inhibitory concentration (IC50) reads like this: under setting [1], 0.526 µM; under setting [2], 0.522 µM.
For `COC(C)(C)C(=O)N1CC2(C1)CN(c1cc(F)c3nc4c(c(N(C)c5nc(-c6ccc(F)cc6)c(C#N)s5)c3c1)CCC4O)C2` (stereo not shown) [Example E30], in that order: 0.165 µM and 0.15 µM.
For `CN(c1nc(-c2ccc(F)cc2)c(C#N)s1)c1c2c(nc3c(F)cc(N4CC5(CN(CC(=O)N6CC[C@@H](O)C6)C5)C4)cc13)C(O)CC2` (stereo partly shown) [Example E31], in that order: 0.222 µM and 0.164 µM.
As for `CC(C(=O)N1CC(O)C1)N1CCN(c2cc(F)c3nc4c(c(N(C)c5nc(-c6ccc(F)cc6)c(C#N)s5)c3c2)CCC4O)CC1` (stereo not shown) [Example E33], the concentration for half-maximal inhibition (IC50) reads like this: under setting [1], 0.323 µM; under setting [2], 0.154 µM.
Turning to `CN(c1nc(-c2ccc(F)cc2)c(C#N)s1)c1c2c(nc3c(F)cc(N4CC5(CN(C(=O)C(C)(C)O)C5)C4)cc13)C(C)(O)CC2` (stereo not shown) [Example E35], the IC50 is, setting by setting: under setting [1], 0.301 µM; under setting [2], 0.393 µM.
With `CN(c1nc(-c2ccc(F)cc2)c(C#N)s1)c1c2c(nc3c(F)cc(N4CC5(CN(C(=O)C(C)(C)O)C5)C4)cc13)C(=O)CC2` [Example E36], the IC50 is 0.371 µM under setting [1] and 0.308 µM under setting [2].
The like results for `CN(c1nc(-c2ccc(F)cc2)c(C#N)s1)c1c2c(nc3c(F)cc(N4CC5(CN(C(=O)CO)C5)C4)cc13)C(O)CC2` (stereo not shown) [Example E39] were, in that order, 0.317 µM and 0.398 µM.
For the molecule `CN(c1nc(-c2ccc(F)cc2)c(C#N)s1)c1c2c(nc3c(F)cc(N4CCN(CC(=O)N5CC[C@@H](O)C5)CC4)cc13)C(O)CC2` (stereo partly shown) [Example E40], the IC50 under setting [2] amounted to 0.337 µM.
For `CN(c1nc(-c2ccc(F)cc2)c(C#N)s1)c1c2c(nc3c(F)cc(N4CCN(CC(=O)N5CC[C@H](O)C5)CC4)cc13)C(O)CC2` (stereo partly shown) [Example E41], the IC50 is 0.305 µM under setting [1] and 0.295 µM under setting [2].
The like results for `CN1CCC(F)(C(=O)N2CC3(C2)CN(c2cc(F)c4nc5c(c(N(C)c6nc(-c7ccc(F)cc7)c(C#N)s6)c4c2)CCC5O)C3)C1` (stereo not shown) [Example E42] were, in that order, 0.412 µM and 0.469 µM.
The like results for `CC(C)C(=O)N1CC2(C1)CN(c1cc(F)c3nc4c(c(N(C)c5nc(-c6ccc(F)cc6)c(C#N)s5)c3c1)CCC4O)C2` (stereo not shown) [Example E43] were, in that order, 0.654 µM and 0.737 µM.
On to `CN(c1nc(-c2ccc(F)cc2)c(C#N)s1)c1c2c(nc3c(F)cc(N4CC5(CN(CC(=O)N6CC(C)(O)C6)C5)C4)cc13)C(O)CC2` (stereo not shown) [Example E44], for which the IC50 is, setting by setting: under setting [1], 0.293 µM; under setting [2], 0.296 µM.
For the molecule `CN(c1nc(-c2ccc(F)cc2)c(C#N)s1)c1c2c(nc3c(F)cc(N4CC5(CCN(CC(=O)N6CC(O)C6)CC5)C4)cc13)C(O)CC2` (stereo not shown) [Example E45], the half-maximal inhibitory concentration (IC50) worked out at 0.584 µM under setting [1] and 0.356 µM under setting [2].
On to `CN(c1nc(-c2ccc(F)cc2)c(C#N)s1)c1c2c(nc3c(F)cc(N4CC5(CN(C(=O)CN6CC(O)C6)C5)C4)cc13)C(O)CC2` (stereo not shown) [Example E47], for which the half-inhibitory concentration (IC50) is, setting by setting: under setting [1], 0.437 µM; under setting [2], 0.409 µM.
Consider `CN(c1nc(-c2ccc(F)cc2)c(C#N)s1)c1c2c(nc3c(F)cc(N4CCC5(CCN(CC(=O)N6CC(O)C6)CC5)C4)cc13)C(O)CC2` (stereo not shown) [Example E48], for which the IC50 was found to be 0.74 µM under setting [1] and 0.671 µM under setting [2].
With `CN(c1nc(-c2ccc(F)cc2)c(C#N)s1)c1c2c(nc3c(F)cc(N4CC5(CN(C(=O)C6CC(=O)OC67CCCC7)C5)C4)cc13)C(O)CC2` (stereo not shown) [Example E49], the IC50 reads like this: under setting [1], 0.494 µM; under setting [2], 0.576 µM.
`CN(c1nc(-c2ccc(F)cc2)c(C#N)s1)c1c2c(nc3c(F)cc(N4CC5(CN(C(=O)[C@H]6CCCN6C)C5)C4)cc13)C(O)CC2` (stereo partly shown) [Example E50]: the half-maximal inhibitory concentration (IC50) under setting [1] was found to be 0.583 µM and the 50% inhibitory concentration (IC50) under setting [2] amounted to 0.546 µM.
As to `CN(c1nc(-c2ccc(F)cc2)c(C#N)s1)c1c2c(nc3c(F)cc(N4CC5(CN(C(=O)[C@@H]6CCCN6C)C5)C4)cc13)C(O)CC2` (stereo partly shown) [Example E51], the IC50 reads like this: under setting [1], 0.348 µM; under setting [2], 0.85 µM.
The like results for `CN(c1nc(-c2ccc(F)cc2)c(C#N)s1)c1c2c(nc3c(F)cc(N4CC5(CN(C(=O)C6(N)CCOC6)C5)C4)cc13)C(O)CC2` (stereo not shown) [Example E52] were, in that order, 0.67 µM and 0.423 µM.
Turning to `CN(c1nc(-c2ccc(F)cc2)c(C#N)s1)c1c2c(nc3c(F)cc(N4CC5(CN(C(=O)C6CCOC6=O)C5)C4)cc13)C(O)CC2` (stereo not shown) [Example E56], the IC50 is, setting by setting: under setting [1], 0.499 µM; under setting [2], 0.44 µM.
With `CN(c1nc(-c2ccc(F)cc2)c(C#N)s1)c1c2c(nc3c(F)cc(N4CC5(CN(CC(=O)N6CC(O)C6)C5)C4)cc13)C(O)CC2` (stereo not shown) [Example E57], the 50% inhibitory concentration (IC50) under setting [1] stood at 0.183 µM and the IC50 under setting [2] is 0.171 µM.
Take `CN(c1nc(-c2ccc(F)cc2)c(C#N)s1)c1c2c(nc3c(F)cc(N4CC5(CN(C(=O)C6CC(O)C6)C5)C4)cc13)C(O)CC2` (stereo not shown) [Example E58]: the IC50 is 0.263 µM under setting [1] and 0.271 µM under setting [2].
`CN(c1nc(-c2ccc(F)cc2)c(C#N)s1)c1c2c(nc3c(F)cc(N4CC5(CN(C(=O)C6(C)CCOC6)C5)C4)cc13)C(O)CC2` (stereo not shown) [Example E59]: the IC50 is 0.24 µM under setting [1] and 0.405 µM under setting [2].
In the case of `CN(c1nc(-c2ccc(F)cc2)c(C#N)s1)c1c2c(nc3c(F)cc(N4CC5(CN(C(=O)C6CCCC6)C5)C4)cc13)C(O)CC2` (stereo not shown) [Example E60], the 50% inhibitory concentration (IC50) was 0.462 µM under setting [1] and 0.448 µM under setting [2].
For `CN(c1nc(-c2ccc(F)cc2)c(C#N)s1)c1c2c(nc3c(F)cc(N4CC5(CN(C(=O)[C@H]6CCCO6)C5)C4)cc13)C(O)CC2` (stereo partly shown) [Example E61], the IC50 runs as follows: under setting [1], 0.583 µM; under setting [2], 0.839 µM.
